Consider one compound from patent US20250281414A1, “HIGH DOSE ENDOXIFEN FORMULATIONS AND METHODS OF USE” (Atossa Therapeutics, Inc., priority 2022, published 2025).

A short description of series [1]: pH-dependent solubility of (Z)-endoxifen. Format: physicochemical. The settings on record: for solubility: read-out: Solubility Z-form. Here is the method:
This example describes pH-dependent solubility of (Z)-endoxifen. (Z)-endoxifen was dissolved in solution under different pH conditions, and the solubility was measured. Since (Z)-endoxifen converts to the E-form under acidic conditions, the solubility of (Z)-endoxifen and (E)-endoxifen were measured independently, and a ratio of Z-form to E-form was determined.

A short description of series [2]: Solubility of (Z)-endoxifen at pH 6.8 with and without Polysorbate 80. Format: physicochemical. Here is the method: This example describes development of a dissolution assay to measure dissolution of endoxifen formulations. Since solubility of endoxifen decreases as pH becomes less acidic, as shown in EXAMPLE 1, additional experiments were performed to improve solubility of endoxifen in the pH 6.8 buffer solution. Polysorbate 80 (PS80), a nonionic surfactant, was added in varying concentrations to improve solubility and mimic an intestinal environment. Surfactants, such as polysorbate 80, create micelles in the medium that mimic the bile acid aggregates in the small intestine. These micelles facilitate the diffusion and transport of product into the medium.

Values after ≈ are worked out from the molar mass of the structure shown.

For `CC/C(=C(\c1ccc(O)cc1)c1ccc(OCCNC)cc1)c1ccccc1` [(Z)-endoxifen], the “Z-form to E-form equilibration” value in series [1] (pH 6.8) is “below the limit of detection”. For the same compound, the solubility is 1050 µg/mL (≈ 2800 µM) in series [1] (solution at pH 1.2, pH 1.2, simulated gastric fluid); 250 µg/mL (≈ 668 µM) in series [1] (solution at pH 4.5, pH 4.5, aqueous buffer); 203 µg/mL (≈ 543 µM) in series [1] (solution at pH 5.0, pH 5, aqueous buffer); 43.5 µg/mL (≈ 116 µM) in series [1] (solution at pH 5.5, pH 5.5, aqueous buffer); 27.8 µg/mL (≈ 74.4 µM) in series [1] (solution at pH 6.0, pH 6, aqueous buffer); 4.26 µg/mL (≈ 11.4 µM) in series [1] (solution at pH 6.8, pH 6.8, aqueous buffer). In addition, the solubility in series [1] (water) stood at 0.78 µg/mL (≈ 2.09 µM); in series [2] (aqueous buffer, pH 6.8 Buffer (Control), no Polysorbate 80), 8.14 µg/mL (≈ 21.8 µM); in series [2] (pH 6.8 buffer with 0.5% Polysorbate 80, pH 6.8, aqueous with cosolvent or surfactant or cyclodextrin) it was 58.3 µg/mL (≈ 156 µM); in series [2] (pH 6.8 buffer with 1.0% Polysorbate 80, pH 6.8, aqueous with cosolvent or surfactant or cyclodextrin) it was 62.1 µg/mL (≈ 166 µM).
